Converted amounts (≈) assume the structure as drawn.
What was measured:
[1] = test system: the microorganisms shown in the Table 3; test: Antimicrobial activity, overall statement; assay type: cell-based; conditions: against the microorganisms shown in the Table 3
Method: Antimicrobial activity of the wickerol of the present invention was as follows. Each circular filter paper (Advantec, diameter: 6 mm) was soaked with 10 μl of methanol solution of the wickerol (1 mg/ml), and then allowed to air-dry for a predetermined time to remove a solvent. After the solvent was removed, the circular filter paper was placed on each of the following test microorganism-containing agar plates, and cultured for 24 hours at 35° C. Thereafter, a diameter of a growth inhibitory circle formed around each of the circular filter papers was measured, and the results were shown in Table 3.

[2] = test system: influenza virus A/PR/8/34; conditions: ratio of MDCK cytotoxicity IC50 to antiviral IC50
[3] = test system: influenza virus A/PR/8/34; test: microbe, parasite or virus in culture; conditions: unidentified influenza virus, PR/8, MDCK, 72 h, read-out: IC50, inhibition of replication of influenza virus A/PR/8/34 through the infection of the MDCK cells
MDCK cells = test: Proliferation of MDCK cells alone (cytotoxicity); assay type: cell-based, canine; conditions: Canis lupus familiaris; MDCK cells without virus; read-out: IC50, inhibition of proliferation of the MDCK cells alone

Question: How did the antimicrobial activity [1] turn out when `CC1CCC2CC3(C)CCC4C3C1(CCC4(C)O)C2(C)C` (stereo not shown) [wickerol] was run?
Answer: The antimicrobial activity was “almost no antimicrobial activity”.

Question: What about the “inhibitory activity against the influenza virus replication relative to cytotoxicity” value [2] of the same compound?
Answer: Its value is “approximately 100 times”.

Question: What about the IC50 [3] of the same compound?
Answer: Its IC50 is 0.07 µg/mL (≈ 0.241 µM).

Question: What about the IC50 (MDCK cells) of the same compound?
Answer: Its IC50 is 7 µg/mL (≈ 24.1 µM).
